In patent publication US12240822B2, “Naphthalene isoxazoline compound and application thereof” (SHANDONG C[…] SEA PHARMACEUTICAL TECHNOLOGY CO., LTD., priority 2023, dated 2025):
≈ marks a conversion by molar mass, not a printed value. Where “and” joins values, the source holds several entries; their conditions need not be identical. Equal values may be shown once.

Key:
Myzus persicae Sulzer = experiment: Indoor toxicity test on Myzus persicae Sulzer wingless aphids, insect soaking and leaf soaking method; type: in vivo; design: LC50 value of the A4 as fraction of the LC50 value of the C4 / LC50 value of the A4 as fraction of the LC50 value of the B4: unit not given beside the values; settings: for LC50: Myzus persicae Sulzer wingless aphids, 48 h after administration
Procedure: The aphid species was Myzus persicae Sulzer, which was a sensitive population raised indoors in the bioassay room of the Plant Protection Institute of Shandong Academy of Agricultural Sciences. The temperature range was 24-26° C., the humidity range was 60%-80%, and the illumination was L:D=16 h:8 h. Aphids used for tests were wingless aphids.
Test medicaments were prepared into a mother solution with methanol and then diluted with a Tween-80 aqueous solution having a mass concentration of 0.1% in equal proportions. According to effective components, the B4 was set to 6 concentration gradients of 0.5 mg/L, 1 mg/L, 2 mg/L, 4 mg/L, 8 mg/L, and 16 mg/L; the C4 was set to 6 concentration gradients of 0.5 mg/L, 1 mg/L, 2 mg/L, 4 mg/L, 8 mg/L, and 16 mg/L; and the A4 was set to 6 concentration gradients of 0.05 mg/L, 0.1 mg/L, 0.2 mg/L, 0.4 mg/L, 0.8 mg/L, and 1.6 mg/L. A methanol aqueous solution having a volume concentration of 4% was taken as a blank control.
Insects for tests were processed according to an insect soaking method (NY/T 1154.6-2006) and a leaf soaking method (NY/T 1154.14-2008). Each medicament for tests was diluted to the set 6 concentrations for later use. Absorbent paper was placed at the bottom of a disposable plastic cup, a layer of filter paper was laid on the absorbent paper, and 2 mL of distilled water was added to keep moisture for later use. Leaves with aphids were cut into small leaves, each leaf has about 20 wingless aphids, and the leaves with aphids were gently soaked in the liquid medicine with tweezers and then taken out after 10 s, and placed on the absorbent paper and air-dried. The air-dried leaves were placed in the prepared plastic cups which were then covered, and one leaf was placed in each plastic cup. One repetition was performed for each plastic cup, and 4 repetitions were performed for each concentration. The plastic cups were placed in an illumination incubator, and the number of live aphids and the number of dead aphids were recorded 48 h later.
DPS software was used for processing, and the median lethal concentration LC50 and 95% confidence limit of 3 test medicaments on aphids at 48 h were determined.
The logarithm of the medicament concentration (mg/L) was taken as an independent variable X, the probability value of a corrected death rate was taken as a dependent variable Y, and the LC50 value, 95% confidence limit and R2 of a toxicity regression line were computed by DPS software.

Thrips palmi Karny = experiment: Indoor toxicity test on Thrips palmi Karny adults, liquid tube drug film method with leaf soaking; type: in vivo; design: LC90 value of the A4 as fraction of the LC90 value of the C4 / LC90 value of the A4 as fraction of the LC90 value of the B4: unit not given beside the values; settings: for LC50 / LC90: Thrips palmi Karny adults, 48 h after administration
Procedure: Through indoor tests, a liquid tube drug film method improved by a filter paper drug film method was used for evaluating the indoor toxicity effects of three raw drugs on Thrips palmi Karny.
Thrips palmi Karny was raised indoors in the insectary of the Plant Protection Institute of Shandong Academy of Agricultural Sciences.
Culture was performed in an illumination incubator, and raising and observation were performed under the conditions that the temperature was 25.0±2.0° C., the relative humidity was 75±5% and the photoperiod (L/D) was 14 h/10 h.
The insect for tests is an adult of Thrips palmi Karny.
Three test medicaments were prepared into a mother solution with methanol and then diluted with a Tween-80 aqueous solution having a mass concentration of 0.1% in equal proportions, and the concentration was set in equal proportions. • B4 concentration: 0.5, 1, 2, 4, 8, 16 mg/L; • C4 concentration: 25, 12.5, 6.25, 3.125, 1.5625, 0.7813 mg/L; • A4 concentration: 0.1, 0.05, 0.025, 0.0125, 0.00625, 0.003125 mg/L. 3.2.2 Test Repetition
Each processing was repeated 4 times, and 30 insects for tests were used for each repetition.
According to NY/T 1154.8-2007, the liquid tube drug film method improved by the filter paper drug film method was used for processing insects for tests. Medicaments for tests were diluted into 6 concentrations, a 1.5 mL centrifugal tube was filled with each concentration of liquid medicine respectively and allowed to stand for 4 h, then the liquid medicine was poured out, and the centrifugal tube was placed on a test table and air-dried for later use. A fine needle tip was heated with an alcohol lamp, and a small hole with a diameter of about 2-3 mm was formed at the bottom of the air-dried centrifugal tube by heating. One repetition was performed for each tube, and 4 repetitions were performed for each concentration. Leaf soaking: A hole puncher was used for punching fresh cabbage leaves into circular leaves with a diameter of 0.5 cm, and the circular leaves were respectively soaked in each concentration of liquid medicine for 10 s with leaf soaking in clear water as a control. The processed leaves were placed on absorbent paper and air-dried and then clamped with small tweezers into the centrifugal tubes with corresponding liquid medicine concentrations, and one leaf was placed flatly in each tube. Indoor insects for tests: An interface of an insect sucker was sealed with gauze and sleeves an orifice of the processed centrifugal tube, and the hole formed by heating at the bottom of the centrifugal tube was aligned with the insects for tests to enable the insects for tests to be sucked into the centrifugal tube along the airflow. The insects for tests were processed after control, about 30 insects for tests were sucked for each repetition, then a tube cover was covered, and the hole formed by heating was sealed with a sealing film. After related information was marked, the number of live insects and the number of dead insects were recorded 48 h later.
Test results were investigated 48 h after drug post-processing.
The logarithm of the medicament concentration (mg/L) was taken as an independent variable X, the probability value of a corrected death rate was taken as a dependent variable Y, and the LC50 value, LC90 value, 95% confidence limit and R2 of a toxicity regression line were computed by DPS software.

[1] = 0.05 mg/L, 48 h, single repetitions 1-4
[2] = 0.1 mg/L, 48 h, single repetitions 1-4
[3] = 0.5 mg/L, 48 h, single repetitions 1-4
[4] = 1 mg/L, 48 h, single repetitions 1-4
[5] = 2 mg/L, 48 h, single repetitions 1-4
[6] = 4 mg/L, 48 h, single repetitions 1-4
[7] = 8 mg/L, 48 h, single repetitions 1-4
[8] = 16 mg/L, 48 h, single repetitions 1-4

CO/N=C/NC(=O)c1ccc(C2=NOC(c3cc(Cl)cc(C(F)(F)F)c3)(C(F)(F)F)C2)c2ccccc12 (stereo not shown) [A4, 4-(5-(3-chloro-5-(trifluoromethyl)phenyl)-5-(trifluoromethyl)-4,5-dihydroisoxazol-3-yl)-N-((methoxylimino)methyl)-1-naphthyl formamide]
Death rate (Myzus persicae Sulzer; 0.05 mg/L, 48 h, Total): 15.94% | Death rate (Myzus persicae Sulzer; [1]): 15.00% and 17.24% and 16.13% and 15.38% | Death rate (Myzus persicae Sulzer; 0.1 mg/L, 48 h, Total): 24.96% | Death rate (Myzus persicae Sulzer; [2]): 23.53% and 22.73% and 25.00% and 28.57% | Death rate (Myzus persicae Sulzer; 0.2 mg/L, 48 h, Total): 33.73% | Death rate (Myzus persicae Sulzer; 0.2 mg/L, 48 h, single repetitions 1-4): 33.33% and 35.71% and 34.29% and 31.58% | Death rate (Myzus persicae Sulzer; 0.4 mg/L, 48 h, Total): 40.78% | Death rate (Myzus persicae Sulzer; 0.4 mg/L, 48 h, single repetitions 1-4): 50.00% and 43.48% and 37.50% and 32.14% | Death rate (Myzus persicae Sulzer; 0.8 mg/L, 48 h, Total): 63.22% | Death rate (Myzus persicae Sulzer; 0.8 mg/L, 48 h, single repetitions 1-4): 61.29% and 67.74% and 60.53% and 63.33% | Death rate (Myzus persicae Sulzer; 1.6 mg/L, 48 h, Total): 84.47% | Death rate (Myzus persicae Sulzer; 1.6 mg/L, 48 h, single repetitions 1-4): 87.10% and 81.25% and 86.21% and 83.33% | LC50 (Myzus persicae Sulzer): 0.439 µg/mL (≈ 0.807 µM) | LC50 value of the A4 as fraction of the LC50 value of the B4 (Myzus persicae Sulzer; Myzus persicae Sulzer, 48 h): 14/100 | LC50 value of the A4 as fraction of the LC50 value of the C4 (Myzus persicae Sulzer; Myzus persicae Sulzer, 48 h): 40/100 | Death rate (Thrips palmi Karny; 0.003125 mg/L, 48 h, Total/Average): 9.97% | Death rate (Thrips palmi Karny; 0.00625 mg/L, 48 h, Total/Average): 37.74% | Death rate (Thrips palmi Karny; 0.00625 mg/L, 48 h, single repetitions 1-4): 35.00% and 29.41% and 42.11% and 44.44% | Death rate (Thrips palmi Karny; 0.0125 mg/L, 48 h, Total/Average): 61.14% | Death rate (Thrips palmi Karny; 0.0125 mg/L, 48 h, single repetitions 1-4): 55.00% and 60.00% and 69.57% | Death rate (Thrips palmi Karny; 0.025 mg/L, 48 h, Total/Average): 80.47% | Death rate (Thrips palmi Karny; 0.025 mg/L, 48 h, single repetitions 1-4): 85.19% and 73.91% and 80.95% and 81.82% | Death rate (Thrips palmi Karny; 0.05 mg/L, 48 h, Total/Average): 91.01% | Death rate (Thrips palmi Karny; [1]): 85.71% and 91.30% and 94.44% and 92.59% | Death rate (Thrips palmi Karny; 0.1 mg/L, 48 h, Total/Average): 100.00% | Death rate (Thrips palmi Karny; [2]): 100.00% | LC50 (Thrips palmi Karny): 0.0123 µg/mL (≈ 0.0226 µM) | LC90 (Thrips palmi Karny): 0.0705 µg/mL (≈ 0.13 µM) | LC90 value of the A4 as fraction of the LC90 value of the B4 (Thrips palmi Karny; Thrips palmi Karny, 48 h): 2/1000 | LC90 value of the A4 as fraction of the LC90 value of the C4 (Thrips palmi Karny; Thrips palmi Karny, 48 h): 4/1000

CO/N=C/NC(=O)c1ccc(C2=NOC(c3cc(Cl)cc(Cl)c3)(C(F)(F)F)C2)cc1C (stereo not shown) [C4, fluxametamide]
Death rate (Myzus persicae Sulzer; 0.5 mg/L, 48 h, Total): 21.47% | Death rate (Myzus persicae Sulzer; [3]): 25.00% and 25.71% and 16.67% and 18.52% | Death rate (Myzus persicae Sulzer; 1 mg/L, 48 h, Total): 46.05% | Death rate (Myzus persicae Sulzer; [4]): 47.83% and 36.36% and 40.00% and 60.00% | Death rate (Myzus persicae Sulzer; 2 mg/L, 48 h, Total): 77.48% | Death rate (Myzus persicae Sulzer; [5]): 85.71% and 77.78% and 75.00% and 71.43% | Death rate (Myzus persicae Sulzer; 4 mg/L, 48 h, Total): 85.54% | Death rate (Myzus persicae Sulzer; [6]): 89.29% and 88.00% and 87.10% and 77.78% | Death rate (Myzus persicae Sulzer; 8 mg/L, 48 h, Total): 96.06% | Death rate (Myzus persicae Sulzer; [7]): 91.67% and 92.59% and 100.00% | Death rate (Myzus persicae Sulzer; 16 mg/L, 48 h, Total): 97.20% | Death rate (Myzus persicae Sulzer; [8]): 93.33% and 100.00% and 95.45% | LC50 (Myzus persicae Sulzer): 1.1 µg/mL (≈ 2.32 µM) | Death rate (Thrips palmi Karny; 0.7813 mg/L, 48 h, Total/Average): 14.47% | Death rate (Thrips palmi Karny; 1.5625 mg/L, 48 h, Total/Average): 25.14% | Death rate (Thrips palmi Karny; 3.125 mg/L, 48 h, Total/Average): 66.15% | Death rate (Thrips palmi Karny; 3.125 mg/L, 48 h, single repetitions 1-4): 70.59% and 63.16% and 70.00% and 60.87% | Death rate (Thrips palmi Karny; 6.25 mg/L, 48 h, Total/Average): 82.01% | Death rate (Thrips palmi Karny; 6.25 mg/L, 48 h, single repetitions 1-4): 85.71% and 88.00% and 75.00% and 79.31% | Death rate (Thrips palmi Karny; 12.5 mg/L, 48 h, Total/Average): 87.89% | Death rate (Thrips palmi Karny; 12.5 mg/L, 48 h, single repetitions 1-4): 88.89% and 85.19% and 87.50% and 90.00% | Death rate (Thrips palmi Karny; 25 mg/L, 48 h, Total/Average): 96.78% | Death rate (Thrips palmi Karny; 25 mg/L, 48 h, single repetitions 1-4): 95.83% and 95.65% and 100.00% | LC50 (Thrips palmi Karny): 2.69 µg/mL (≈ 5.67 µM) | LC90 (Thrips palmi Karny): 16.1203 µg/mL (≈ 34 µM)

CO/N=C/NC(=O)c1ccc(C2=NOC(c3cc(Cl)cc(Cl)c3)(C(F)(F)F)C2)c2ccccc12 (stereo not shown) [B4, 4-(5-(3,5-dichlorophenyl)-5-(trifluoromethyl)-4,5-dihydroisoxazol-3-yl)-N-((methoxylimino)methyl)-1-naphthyl formamide]
Death rate (Myzus persicae Sulzer; 0.5 mg/L, 48 h, Total): 12.01% | Death rate (Myzus persicae Sulzer; [3]): 10.00% and 12.50% and 13.04% | Death rate (Myzus persicae Sulzer; 1 mg/L, 48 h, Total): 20.73% | Death rate (Myzus persicae Sulzer; [4]): 15.15% and 22.22% and 21.74% and 23.81% | Death rate (Myzus persicae Sulzer; 2 mg/L, 48 h, Total): 45.08% | Death rate (Myzus persicae Sulzer; 4 mg/L, 48 h, Total): 61.17% | Death rate (Myzus persicae Sulzer; [6]): 41.94% and 58.33% and 72.00% and 72.41% | Death rate (Myzus persicae Sulzer; 8 mg/L, 48 h, Total): 78.33% | Death rate (Myzus persicae Sulzer; [7]): 80.95% and 66.67% and 85.71% and 80.00% | Death rate (Myzus persicae Sulzer; 16 mg/L, 48 h, Total): 84.61% | Death rate (Myzus persicae Sulzer; [8]): 88.89% and 86.96% and 81.82% and 80.77% | LC50 (Myzus persicae Sulzer): 3.13 µg/mL (≈ 6.14 µM) | Death rate (Thrips palmi Karny; 0.5 mg/L, 48 h, Total/Average): 18.31% | Death rate (Thrips palmi Karny; 1 mg/L, 48 h, Total/Average): 30.20% | Death rate (Thrips palmi Karny; 2 mg/L, 48 h, Total/Average): 33.85% | Death rate (Thrips palmi Karny; [5]): 30.77% and 36.84% and 27.78% and 40.00% | Death rate (Thrips palmi Karny; 4 mg/L, 48 h, Total/Average): 47.56% | Death rate (Thrips palmi Karny; [6]): 52.00% and 41.38% and 54.55% and 42.31% | Death rate (Thrips palmi Karny; 8 mg/L, 48 h, Total/Average): 67.00% | Death rate (Thrips palmi Karny; [7]): 79.17% and 68.00% and 58.33% and 62.50% | Death rate (Thrips palmi Karny; 16 mg/L, 48 h, Total/Average): 98.68% | Death rate (Thrips palmi Karny; [8]): 100.00% and 94.74% | LC50 (Thrips palmi Karny): 3.33 µg/mL (≈ 6.53 µM) | LC90 (Thrips palmi Karny): 33.9739 µg/mL (≈ 66.6 µM)
